Results: publication PMC9676231, “Screening and characterization estrogen receptor ligands from Arnebia euchroma (Royle) Johnst. via affinity ultrafiltration LC-MS and molecular docking” (Frontiers in Plant Science, 2022)
Like-named read-outs stand apart in the source and are kept apart here.

What was measured:
[1] = target: T1, ER α (Homo sapiens, UniProt P03372); assay: Affinity ultrafiltration LC-MS screening (AUF-LC-MS) of Arnebiae Radix extract against ER α; details: specific binding = Aa/Ab (relative peak area active group / denatured group), extract 5.0 mg/ml, ER α 200 µg/ml, 37°C 60 min, <1.5 = non-ligand
T1 construct: purchased Shanghai Tongwei Biotechnology Co., Ltd. (China)
T1 sequence (P03372 1-595): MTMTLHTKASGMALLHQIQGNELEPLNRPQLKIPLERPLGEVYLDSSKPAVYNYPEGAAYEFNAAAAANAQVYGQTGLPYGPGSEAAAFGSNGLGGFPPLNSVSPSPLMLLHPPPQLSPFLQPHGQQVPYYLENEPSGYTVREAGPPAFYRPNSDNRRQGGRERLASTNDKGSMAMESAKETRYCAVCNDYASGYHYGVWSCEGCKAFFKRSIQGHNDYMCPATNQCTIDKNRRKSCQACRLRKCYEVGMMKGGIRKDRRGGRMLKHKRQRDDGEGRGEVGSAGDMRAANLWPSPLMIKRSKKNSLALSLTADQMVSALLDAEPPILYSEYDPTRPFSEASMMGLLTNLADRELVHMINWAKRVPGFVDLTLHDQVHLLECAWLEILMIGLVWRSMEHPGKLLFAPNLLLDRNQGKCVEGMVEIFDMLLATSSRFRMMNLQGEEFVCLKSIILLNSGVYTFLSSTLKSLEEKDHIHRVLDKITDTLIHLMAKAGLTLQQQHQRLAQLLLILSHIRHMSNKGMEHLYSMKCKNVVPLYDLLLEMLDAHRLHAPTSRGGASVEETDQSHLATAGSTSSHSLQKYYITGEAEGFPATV
Experimental: (§1) The above extract was dissolved in DMSO, and the solution was diluted with buffer (pH = 8.0) to a final concentration of 5.0 mg/ml. The sample solution and buffer were successively added to EP tubes. Then buffer, inactivated ER α solution (200 µg/ml, boiled in the water bath for 20 min), and ER α solution (200 µg/ml) were separately added as the blank control group, the denatured control group, and the sample group, respectively. The blank control group and denatured control group were set to exclude some interference factors about background, false positives, and non-specific binding. The group of mixtures was subsequently incubated in the dark at 37°C for 60 min to make a combination balance. Next, each mixture (200 μl) was transferred into an ultrafiltration tube and ultrafiltered at 12,000 rpm for 15 min at 4°C. Then, each group was washed three times with 300 μl of buffer to remove unbound small molecules. Finally, the ligands bound to ER α were dissociated from the complexes by incubating with 300 μl of methanol/water (90/10) for 10 min and then centrifuging at 12,000 rpm for 15 min at room temperature, three times. These ultrafiltrates for each group were dried under nitrogen gas at room temperature and reconstituted in 80 μl of methanol/water (50/50) prior to UHPLC-Q-Exactive Orbitrap MS analysis. All the screening assays were carried out in triplicate. Except for the replacement of the ER, the affinity ultrafiltration screening method of ER β is similar to that of ER α in the other steps.
The analyses are exercised on Q-Exactive Focus Orbitrap MS connected to Thermo Scientific Dionex Ultimate 3000 RS through an ESI source. […] The 0.1% formic acid and acetonitrile were used as the mobile phases A and B, respectively. […] For the MS/MS analysis, the mass spectrometer equipped with an electrospray ionization source was obtained with a resolution of 70,000 detected by the Orbitrap analyzer. In order to comprehensively explore compounds, the positive and negative ion modes were both selected. The mass spectrometry conditions are as follows: electrospray ion source, the spray voltage was 3.5 kV for positive ion mode and 3.2 kV for negative ion mode, sheath gas pressure was 35 arb, auxiliary gas pressure was 10 arb, and the temperature of capillary and auxiliary gas heater was 320°C and 350°C, respectively; and the S-lens RF level was 60. Full-scan data were acquired from m/z 100–1,200 by data-dependent MS^2 scanning or parallel reaction monitoring (PRM) mode. The nitrogen gas served as collision gas, and the energy was set as normalized collision energy 30%. Instrument and data were controlled by the Xcalibur software version 4.2.
Therefore, affinity ultrafiltration can rapidly screen and identify bioactive compounds in complex plant extracts by comparing the changes in peak areas before and after ultrafiltration.

[2] = target: T2, ER β (Homo sapiens, UniProt Q92731); assay: Affinity ultrafiltration LC-MS screening (AUF-LC-MS) of Arnebiae Radix extract against ER β; details: specific binding = Aa/Ab (relative peak area active group / denatured group), extract 5.0 mg/ml, ER β 200 µg/ml, 37°C 60 min, <1.5 = non-ligand
T2 construct: purchased Shanghai Tongwei Biotechnology Co., Ltd. (China)
T2 sequence (Q92731 whole entry): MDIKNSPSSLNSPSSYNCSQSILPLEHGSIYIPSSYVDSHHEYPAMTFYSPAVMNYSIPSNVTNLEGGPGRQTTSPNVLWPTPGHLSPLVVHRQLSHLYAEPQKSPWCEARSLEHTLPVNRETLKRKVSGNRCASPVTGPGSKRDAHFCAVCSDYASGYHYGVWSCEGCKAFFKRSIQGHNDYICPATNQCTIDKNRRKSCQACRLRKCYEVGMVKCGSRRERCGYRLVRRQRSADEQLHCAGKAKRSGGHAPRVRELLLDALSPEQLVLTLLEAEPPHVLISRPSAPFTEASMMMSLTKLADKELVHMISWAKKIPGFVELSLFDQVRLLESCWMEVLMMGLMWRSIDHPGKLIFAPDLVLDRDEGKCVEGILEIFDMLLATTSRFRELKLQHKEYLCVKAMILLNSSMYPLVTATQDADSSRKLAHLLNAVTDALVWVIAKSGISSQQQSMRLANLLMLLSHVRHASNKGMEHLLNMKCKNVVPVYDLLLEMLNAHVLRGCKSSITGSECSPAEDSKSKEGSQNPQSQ
Experimental: as §1
The analyses are exercised on Q-Exactive Focus Orbitrap MS connected to Thermo Scientific Dionex Ultimate 3000 RS through an ESI source. For the chromatographic separation, a Thermo Scientific Hypersil GOLD™ aQ (100 mm × 2.1 mm, 1.9 μm) was applied at the flow rate of 0.3 ml/min. The 0.1% formic acid and acetonitrile were used as the mobile phases A and B, respectively. The optimized UHPLC elution procedures were conducted as follows: 0–2 min, 95%–90% A; 2–5 min, 90%–80% A; 5–10 min, 80%–75% A; 10–15 min, 75%–50% A; 15–25 min, 50%–45% A; 25–40 min, 45%–20% A; 40–45 min, 20%–5% A; 45–45.1 min, 5%–95% A; 45–50 min, 95% A. The column temperature was maintained at 35°C. For the MS/MS analysis, the mass spectrometer equipped with an electrospray ionization source was obtained with a resolution of 70,000 detected by the Orbitrap analyzer. In order to comprehensively explore compounds, the positive and negative ion modes were both selected. The mass spectrometry conditions are as follows: electrospray ion source, the spray voltage was 3.5 kV for positive ion mode and 3.2 kV for negative ion mode, sheath gas pressure was 35 arb, auxiliary gas pressure was 10 arb, and the temperature of capillary and auxiliary gas heater was 320°C and 350°C, respectively; and the S-lens RF level was 60. Full-scan data were acquired from m/z 100–1,200 by data-dependent MS^2 scanning or parallel reaction monitoring (PRM) mode. The nitrogen gas served as collision gas, and the energy was set as normalized collision energy 30%. Instrument and data were controlled by the Xcalibur software version 4.2.
Therefore, affinity ultrafiltration can rapidly screen and identify bioactive compounds in complex plant extracts by comparing the changes in peak areas before and after ultrafiltration. […] According to literature reports ([Munigunti et al., 2011]), compounds whose specific binding values were less than 1.5 were considered as non-ligands.

[3] = target: T2, ER β; assay: SPR binding measurements (Biacore T200) on immobilized ER β; details: for kon: read-out: Ka (association rate constant); for koff: read-out: Kd (dissociation rate constant)
Experimental: SPR binding measurements were performed using a Biacore T200 biosensor system (Cytiva, USA). All the SPR-based materials were acquired from Cytiva.
ER β was dissolved in PBS at 1.0 mg/ml and was then diluted in 20 μg/ml sodium acetate buffer at pH 5.0 and immobilized on a CM5 chip using an amine coupling kit. Sulfo-NHS (0.1 mol/l) and EDC (0.4 mol/l) with a 1:1 volume ratio were mixed at 25°C and flowed through a chip channel at 10 μl/min. ERβ was flowed through the chip channel at the same flow rate and reacted with the activated carboxyl groups on the chip for 600 s. Ethanolamine hydrochloride flowed through the chip channel at the same flow rate for 360 s.
Sensor preparation and interaction analyses were performed at 25°C in the PBS running buffer. Each analyte was dissolved in DMSO at 1 mg/ml and then dissolved in the running buffer at 0.20, 0.39, 0.78, 1.56, 3.13, 6.25, 12.5, and 25 μg/ml for SPR measurements.
The running buffer was used as the blank control. Eight groups of gradient concentrations of the same analyte (and the blank control) were flowed through the immobilized channel at a flow rate of 30 μl/min, with an association time of 180s and a dissociation time of 300 s. The collected signals were monitored in real time, and a reference flow cell without immobilized ER β served as a non-specific binding control. The rate constants of association and dissociation were calculated by the non-linear fitting method including the simultaneous fitting for the association and dissociation phases in each sensorgram in Biacore Evaluation Software version 3.2.1 (Cytiva, USA).

[4] = target: thrombin; design: method as in Wang et al., 2017; details: SPR, direct interaction with thrombin; ref Wang et al., 2017; cited from earlier work
[5] = SPR, ER β on CM5 chip, 25°C, PBS running buffer, read-out: KD
[6] = SPR, ER β on CM5 chip, 25°C, PBS running buffer

Row | SMILES | Specific binding [1] | Specific binding [2] | Rmax ([3]; SPR, ER β on CM5 chip, 25°C) | Kd [3, 5] | also measured
1 | O=C(O)CCCCC(=O)O [Adipic acid] | 5.77 | – | – | – | –
2 | O=c1c(O)c(-c2ccc(O)c(O)c2)oc2cc(O)cc(O)c12 [Quercetin] | – | 1.54 | 13.28 RU | 1260 nM | kon [3]: 2950 M⁻¹ s⁻¹; koff [3]: 0.00372 s⁻¹
3 | CC(C)=CCCC1=CC(=O)c2c(O)ccc(O)c2C1=O [Deoxyshikonin] | 2.28 | – | – | – | –
4 | O=C(O)CC(O)(CC(=O)O)C(=O)O [Citric acid] | 5.02 | 1.78 | – | – | –
5 | COc1ccc2cc3[n+](cc2c1OC)CCc1cc2c(cc1-3)OCO2 [berberine] | – | – | – | – | Kd [4]: 16400 nM
6 | O=c1c(O[C@@H]2O[C@H](CO)[C@@H](O)[C@H](O)[C@H]2O)c(-c2ccc(O)c(O)c2)oc2cc(O)cc(O)c12 [Isoquercitrin] | – | 1.91 | 9.57 RU | 1040 nM | kon [3, 6]: 3020 M⁻¹ s⁻¹; koff [3, 6]: 0.00314 s⁻¹
7 | O=C(/C=C/c1ccc(O)c2c1[C@H](C(=O)O[C@H](Cc1ccc(O)c(O)c1)C(=O)O)[C@@H](c1ccc(O)c(O)c1)O2)O[C@H](Cc1ccc(O)c(O)c1)C(=O)O [Salvianolic acid B] | – | 2.24 | 3.51 RU | – | Kd [3]: 2320 nM; kon [3, 6]: 788 M⁻¹ s⁻¹; koff [3, 6]: 0.00183 s⁻¹

Continued, in another order:

Row | Specific binding [1] | Specific binding [2] | Rmax ([3]; SPR, ER β on CM5 chip, 25°C) | Kd [3, 5] | SMILES | also measured
8 | 2.15 | – | – | – | COc1ccc(C2COc3cc(O)ccc3C2)c(OC)c1 (stereo not shown) [Sativan] | –
9 | – | 2.66 | 4.41 RU | 1320 nM | O=C(/C=C/c1ccc(O)c(O)c1)O[C@H](Cc1ccc(O)c(O)c1)C(=O)O [Rosmarinic acid] | kon [3, 6]: 2020 M⁻¹ s⁻¹; koff [3, 6]: 0.00266 s⁻¹
10 | 6.36 | 2.39 | – | – | N[C@@H](Cc1ccccc1)C(=O)O [Phenylalanine] | –
11 | – | 2.20 | – | – | O=C(O)CC(O)C(=O)O (stereo not shown) [Malic acid] | –
12 | – | – | 7.78 RU | 934 nM | C[C@@H]1O[C@@H](OC[C@H]2O[C@@H](Oc3c(-c4ccc(O)c(O)c4)oc4cc(O)cc(O)c4c3=O)[C@H](O)[C@@H](O)[C@@H]2O)[C@H](O)[C@H](O)[C@H]1O [Rutin] | –
13 | – | 1.75 | 12.6 RU | 1980 nM | O=C(/C=C/c1ccc(O)c2oc(-c3ccc(O)c(O)c3)cc12)O[C@H](Cc1ccc(O)c(O)c1)C(=O)O [Salvianolic acid C] | kon [3, 6]: 1390 M⁻¹ s⁻¹; koff [3, 6]: 0.00276 s⁻¹
14 | – | 2.29 | – | – | CCCC[C@H](N)C(=O)O [Norleucine] | –
